{
  "source": "paper PMC6131351",
  "about": "“Pharmacological difference between degrader and inhibitor against oncogenic BCR-ABL kinase” (Scientific Reports, 2018)",
  "key": {"[1]": {"target": "T1, BCR-ABL protein (Homo sapiens, UniProt P00519+P11274)", "T1 construct": "examined for their activity to degrade BCR-ABL in K562 cells for 6 h; BCR (fusion partner, P11274, N-terminal part); endogenous in cells; host or cells: K562", "T1 sequence (P11274+P00519 fused)": "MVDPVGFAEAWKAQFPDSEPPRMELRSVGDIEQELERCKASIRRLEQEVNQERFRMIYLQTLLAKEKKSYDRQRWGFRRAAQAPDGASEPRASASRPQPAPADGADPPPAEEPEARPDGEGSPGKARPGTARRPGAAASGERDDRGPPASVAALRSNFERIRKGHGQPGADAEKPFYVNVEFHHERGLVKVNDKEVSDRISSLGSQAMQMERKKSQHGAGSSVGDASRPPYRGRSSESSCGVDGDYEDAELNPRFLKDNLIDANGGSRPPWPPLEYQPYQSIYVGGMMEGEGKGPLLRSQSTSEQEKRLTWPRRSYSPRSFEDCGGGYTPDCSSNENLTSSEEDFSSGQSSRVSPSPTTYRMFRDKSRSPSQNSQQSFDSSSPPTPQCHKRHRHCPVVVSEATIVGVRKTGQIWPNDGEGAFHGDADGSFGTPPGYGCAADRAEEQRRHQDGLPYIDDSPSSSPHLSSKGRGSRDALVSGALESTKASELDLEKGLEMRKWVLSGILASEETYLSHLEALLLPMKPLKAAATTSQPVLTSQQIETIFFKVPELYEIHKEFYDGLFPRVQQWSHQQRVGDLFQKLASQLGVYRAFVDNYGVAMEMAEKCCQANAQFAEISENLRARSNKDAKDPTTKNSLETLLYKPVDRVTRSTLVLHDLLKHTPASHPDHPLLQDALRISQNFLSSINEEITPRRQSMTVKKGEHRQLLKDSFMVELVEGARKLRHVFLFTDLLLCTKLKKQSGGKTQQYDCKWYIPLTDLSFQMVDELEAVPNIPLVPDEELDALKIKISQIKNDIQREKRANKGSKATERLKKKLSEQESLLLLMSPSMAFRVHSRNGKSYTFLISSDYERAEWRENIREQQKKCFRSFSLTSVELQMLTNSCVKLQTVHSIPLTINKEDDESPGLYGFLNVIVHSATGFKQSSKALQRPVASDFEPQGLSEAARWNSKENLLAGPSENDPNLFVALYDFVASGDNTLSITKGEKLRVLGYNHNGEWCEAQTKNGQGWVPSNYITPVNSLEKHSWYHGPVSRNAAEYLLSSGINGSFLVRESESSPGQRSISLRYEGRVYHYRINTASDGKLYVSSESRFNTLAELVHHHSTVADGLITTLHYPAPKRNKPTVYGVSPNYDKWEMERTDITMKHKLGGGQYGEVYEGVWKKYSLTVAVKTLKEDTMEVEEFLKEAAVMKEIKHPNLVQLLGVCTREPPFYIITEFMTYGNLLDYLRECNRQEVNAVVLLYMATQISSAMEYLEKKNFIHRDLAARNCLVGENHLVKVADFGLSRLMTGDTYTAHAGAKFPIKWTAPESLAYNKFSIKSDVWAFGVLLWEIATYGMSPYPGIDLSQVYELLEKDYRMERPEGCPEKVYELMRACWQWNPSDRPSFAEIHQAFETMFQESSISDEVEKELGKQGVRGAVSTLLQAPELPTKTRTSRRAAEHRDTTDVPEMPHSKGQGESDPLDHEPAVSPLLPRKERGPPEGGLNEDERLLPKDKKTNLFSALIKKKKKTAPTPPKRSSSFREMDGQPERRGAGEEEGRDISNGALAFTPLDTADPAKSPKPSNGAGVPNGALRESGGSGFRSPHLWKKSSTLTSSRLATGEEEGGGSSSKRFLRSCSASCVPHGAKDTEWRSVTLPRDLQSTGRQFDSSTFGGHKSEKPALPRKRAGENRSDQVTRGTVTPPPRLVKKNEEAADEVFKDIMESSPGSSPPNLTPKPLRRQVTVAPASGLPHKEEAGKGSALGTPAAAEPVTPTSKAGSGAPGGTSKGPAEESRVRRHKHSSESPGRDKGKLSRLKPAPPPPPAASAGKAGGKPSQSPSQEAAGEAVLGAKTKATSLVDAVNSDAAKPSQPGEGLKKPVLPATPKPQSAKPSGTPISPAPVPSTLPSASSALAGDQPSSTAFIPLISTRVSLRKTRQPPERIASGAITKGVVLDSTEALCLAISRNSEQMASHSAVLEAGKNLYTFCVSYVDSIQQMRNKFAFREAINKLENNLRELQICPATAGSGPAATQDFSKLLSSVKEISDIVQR", "assay": "Protein knockdown by western blot in K562 cells", "type": "cell-based", "conditions": "6 h, 1-300 nM", "description": "(§1) Cells were collected and lysed in a lysis buffer (0.5% Triton X-100, 0.01 M Tris-HCl (pH 7.5), 0.15 M NaCl, Complete Mini protease inhibitor cocktail (Roche Applied Science, Indianapolis, IL, USA) and PhosStop phosphatase inhibitor cocktail (Roche Applied Science)). Protein concentrations were measured by the BCA method (Thermo Fisher Scientific) and an equal amount of protein lysate was separated by SDS-PAGE, transferred to polyvinylidene difluoride membranes (Merck Millipore) and analyzed by western blot using an appropriate antibody. The immunoreactive proteins were visualized using Clarity Western ECL substrate (Bio-Rad, Hercules, CA, USA) and their light emission was quantified with a LAS-3000 lumino-image analyzer (Fuji, Tokyo, Japan)."}, "[2]": {"system": "K562 cells", "assay": "WST cell growth inhibition, K562", "type": "cell-based, Human", "conditions": "48 h", "description": "(§2) Human CML (K562 and KU812 cells), acute T-lymphoblast leukemia (MOLT-4 cell), and T cell leukemia (Jurkat cell) were cultured in Roswell Park Memorial Institute-1640 medium (Sigma-Aldrich, St. Louis, MO, USA) containing 10% fetal bovine serum (Thermo Fisher Scientific, Waltham, MA, USA) and 50 μg/ml kanamycin (Sigma-Aldrich). KU812 cells were obtained from Japanese Collection of Research Bioresources (JCRB, Osaka, Japan) Cell Bank (JCRB0104)[58].\n(§3) Cell viability was determined using water-soluble tetrazolium WST-8 (4-[3-(2-methoxy-4-nitrophenyl)-2-(4-nitrophenyl)-2H-5-tetrazolio]-1,3-benzene disulfonate) for the spectrophotometric assay and conducted according to the manufacturer’s instructions (Dojindo, Tokyo, Japan). Cells were seeded at a concentration of 5 × 10^3 cells per well in a 96-well culture plate, and treated with the indicated compounds for 48 h. The WST-8 reagent was added, and the cells were incubated for 0.5 h at 37 °C in a humidified atmosphere of 5% CO2. The absorbance at 450 nm of the medium was measured using the EnVision Multilabel Plate Reader."}, "[3]": {"system": "KU812 cells", "assay": "WST cell growth inhibition, KU812", "type": "cell-based", "conditions": "Homo sapiens, 48 h, WST assay, means ± SD (n = 3)", "description": "as §2, §3"}, "[4]": {"system": "phosphorylation of BCR-ABL, STAT5 and CrkL", "assay": "Downstream kinase signaling (phosphorylation) by western blot in K562 cells", "type": "cell-based, Human", "description": "as §1, with “Japan). The following antibodies were used: anti-cAbl rabbit polyclonal antibody (pAb) (#2862), anti-XIAP rabbit pAb (#2042), anti-phospho-cAbl rabbit pAb (#3009), anti-STAT5 rabbit pAb (#9363), anti-phospho-STAT5 rabbit pAb (#9359), anti-CrkL mouse monoclonal antibody (mAb) (#3182) and anti-phospho-CrkL rabbit pAb (#3181), anti-PARP rabbit pAb (#9532), and anti-cleaved Caspase 3 rabbit pAb (#9664) (Cell Signaling Technology, Danvers, MA, USA); anti-β-tubulin (ab6046) rabbit pAb (Abcam, Cambridge, UK) and anti-GAPDH rabbit pAb (sc-25778 HRP) (Santa Cruz, Dallas, TX, USA); anti-cIAP1 goat pAb (AF8181) (R&D systems).” for “Japan).”\n(§4) Cells were seeded at a concentration of 2 × 10^6 cells per 10-cm tissue culture dish and treated with the indicated compounds for the indicated times. Then, the cells were washed three times to remove the compounds, and incubated in drug-free medium for the indicated times."}, "[5]": {"system": "K562 cells", "assay": "Washout experiment, cell counting of K562 cells", "type": "cell-based, Human", "conditions": "25 or 50 times IC50 for 12 h, washed, drug-free medium for 6 d", "description": "as §4"}, "[6]": {"system": "caspase 3 activation and PARP cleavage", "assay": "Caspase activation and PARP cleavage after drug removal in K562 cells", "type": "cell-based, Human", "description": "as §1, with “Japan). The following antibodies were used: anti-cAbl rabbit polyclonal antibody (pAb) (#2862), anti-XIAP rabbit pAb (#2042), anti-phospho-cAbl rabbit pAb (#3009), anti-STAT5 rabbit pAb (#9363), anti-phospho-STAT5 rabbit pAb (#9359), anti-CrkL mouse monoclonal antibody (mAb) (#3182) and anti-phospho-CrkL rabbit pAb (#3181), anti-PARP rabbit pAb (#9532), and anti-cleaved Caspase 3 rabbit pAb (#9664) (Cell Signaling Technology, Danvers, MA, USA); anti-β-tubulin (ab6046) rabbit pAb (Abcam, Cambridge, UK) and anti-GAPDH rabbit pAb (sc-25778 HRP) (Santa Cruz, Dallas, TX, USA); anti-cIAP1 goat pAb (AF8181) (R&D systems).” for “Japan).”\nas §4"}, "[7]": {"target": "T2, recombinant His-tagged human XIAP (BIR3, Asn252-Thr356) (human, UniProt P98170 252-356)", "T2 construct": "XIAP, human, BIR3 domain, residues Asn252-Thr356; also called His-IAP proteins; source: bought: R&D Systems (895-XB-050)", "T2 sequence (P98170 252-356)": "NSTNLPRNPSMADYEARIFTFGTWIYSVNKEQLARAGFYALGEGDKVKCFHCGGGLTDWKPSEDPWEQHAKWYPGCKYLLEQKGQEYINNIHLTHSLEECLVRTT", "assay": "AlphaScreen or HTRF; TR-FRET competition assay: 0.6 nM His-IAP BIR3 held by biotinylated anti-His antibody and terbium-streptavidin, FITC-Smac probe (27 nM for XIAP, 12 nM for cIAP1, 19 nM for cIAP2), small-molecule test compounds as competitors; 50 mM HEPES pH 7.2-7.5, 10 mM MgCl2, 1 mM EGTA, 0.1 mM DTT, 0.01% Brij 35; room temperature", "conditions": "both partners purified"}, "[8]": {"target": "T3, recombinant His-tagged human cIAP1 (BIR3, Leu250-Gly350) (human, UniProt Q13490 250-350)", "T3 construct": "cIAP1, human, BIR3 domain, residues Leu250-Gly350; also called His-IAP proteins; source: E. coli, purified (Ni-NTA column, gel filtration chromatography)", "T3 sequence (Q13490 250-350)": "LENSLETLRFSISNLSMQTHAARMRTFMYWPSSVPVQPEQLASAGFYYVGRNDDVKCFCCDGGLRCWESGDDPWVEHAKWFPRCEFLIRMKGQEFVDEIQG", "assay": "AlphaScreen or HTRF; TR-FRET competition assay: 0.6 nM His-IAP BIR3 held by biotinylated anti-His antibody and terbium-streptavidin, FITC-Smac probe (27 nM for XIAP, 12 nM for cIAP1, 19 nM for cIAP2), small-molecule test compounds as competitors; 50 mM HEPES pH 7.2-7.5, 10 mM MgCl2, 1 mM EGTA, 0.1 mM DTT, 0.01% Brij 35; room temperature", "conditions": "both partners purified"}, "[9]": {"target": "T4, recombinant His-tagged human cIAP2 (BIR3, Gln238-Ser349) (human, UniProt Q13489 238-349)", "T4 construct": "cIAP2, human, BIR3 domain, residues Gln238-Ser349; also called His-IAP proteins; source: E. coli, purified (Ni-NTA column, gel filtration chromatography)", "T4 sequence (Q13489 238-349)": "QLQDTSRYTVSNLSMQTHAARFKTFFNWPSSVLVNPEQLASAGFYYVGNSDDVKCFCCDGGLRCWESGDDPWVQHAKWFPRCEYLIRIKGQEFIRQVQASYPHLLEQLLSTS", "assay": "AlphaScreen or HTRF; TR-FRET competition assay: 0.6 nM His-IAP BIR3 held by biotinylated anti-His antibody and terbium-streptavidin, FITC-Smac probe (27 nM for XIAP, 12 nM for cIAP1, 19 nM for cIAP2), small-molecule test compounds as competitors; 50 mM HEPES pH 7.2-7.5, 10 mM MgCl2, 1 mM EGTA, 0.1 mM DTT, 0.01% Brij 35; room temperature", "conditions": "both partners purified"}},
  "note": "Residues, ends and D or L forms follow the SMILES beside them. No end group written: not given here. *: point of attachment. 5FAM = O=C1OC2(c3ccc(O)cc3Oc3cc(O)ccc32)c2ccc(C(=O)*)cc21; Cbz = O=C(OCc1ccccc1)*; CH2F = FC*",
  "data": [
    {"molecule": "Cc1nc(Nc2ncc(C(=O)Nc3c(C)cccc3Cl)s2)cc(N2CCN(C(=O)COCCOCCOCC(=O)N[C@H](C(=O)N3C[C@H](O)C[C@H]3C(=O)NCc3ccc(-c4scnc4C)cc3)C(C)(C)C)CC2)n1", "note": "[DAS-VHL]", "values": [
      {"measurement": "knockdown activity against the BCR-ABL protein", "setting": "[1]", "result": "negligible activity"}
    ]},
    {"molecule": "Cc1nc(Nc2ncc(C(=O)Nc3c(C)cccc3Cl)s2)cc(N2CCN(CCO)CC2)n1", "note": "[Dasatinib, dasatinib, reference compound]", "values": [
      {"measurement": "times more active than DAS-IAP to inhibit CML cell growth", "setting": "[2]", "result": 100, "unit": "times"},
      {"measurement": "IC50", "setting": "[2]; Homo sapiens, WST assay, means ± SD (n = 3)", "result": "0.0793 ± 0.0037", "unit": "nM"},
      {"measurement": "IC50", "setting": "[3]", "result": "0.0448 ± 0.0005", "unit": "nM"},
      {"measurement": "phosphorylation of BCR-ABL, STAT5 and CrkL", "setting": "[4]; K562, 50 times IC50 for 12 h (time 0)", "result": "inhibited"},
      {"measurement": "phosphorylation of BCR-ABL, STAT5 and CrkL", "setting": "[4]; K562 cells, 6 h", "result": "suppressed"},
      {"measurement": "growth of K562 cells after drug removal", "setting": "[5]", "result": "slightly delayed the growth"},
      {"measurement": "caspase 3 activation and PARP cleavage", "setting": "[6]; K562, 50 times IC50 for 12 h, drug removal for 24 h", "result": "not"}
    ]},
    {"molecule": "CCN1CCN(Cc2ccc(NC(=O)c3cccc(-c4ccc5nc(NC(=O)COCCOCCOCCOc6cccc(C(=O)c7csc([C@@H]8CCCN8C(=O)[C@@H](NC(=O)[C@H](C)NC)C8CCCCC8)n7)c6)sc5n4)c3)cc2C(F)(F)F)CC1", "note": "[HG-IAP]", "values": [
      {"measurement": "knockdown activity against the BCR-ABL protein", "setting": "[1]", "result": "weak"}
    ]},
    {"molecule": "CCN1CCN(Cc2ccc(NC(=O)c3cccc(-c4ccc5nc(NC(=O)COCCOCCOCC(=O)N[C@H](C(=O)N6C[C@H](O)C[C@H]6C(=O)NCc6ccc(-c7scnc7C)cc6)C(C)(C)C)sc5n4)c3)cc2C(F)(F)F)CC1", "note": "[HG-VHL]", "values": [
      {"measurement": "suppression of K562 cell growth (comparison)", "setting": "[2]; WST assay", "result": "more potent suppression of the growth of K562 cells than HG-IAP and HG-CRBN"},
      {"measurement": "knockdown activity against the BCR-ABL protein", "setting": "[1]", "result": "effective protein knockdown activity"}
    ]},
    {"molecule": "COC(=O)C[C@H](NC(=O)[C@H](C)NC(=O)[C@@H](NC(=O)OCc1ccccc1)C(C)C)C(=O)CF", "note": "[zVAD-FMK, reference compound] (Cbz-Val-Ala-Asp(OMe)-CH2F)", "values": [
      {"measurement": "effect on caspase activation and PARP cleavage by DAS-IAP", "setting": "[6]; K562, after DAS-IAP pulse and drug removal, 24 h", "result": "abrogated"}
    ]},
    {"molecule": "AVPIAQK(5FAM)-NH2 (N-terminus assumed; SMILES CC[C@H](C)[C@H](NC(=O)[C@@H]1CCCN1C(=O)[C@@H](NC(=O)[C@H](C)N)C(C)C)C(=O)N[C@@H](C)C(=O)N[C@@H](CCC(N)=O)C(=O)N[C@@H](CCCCNC(=O)c1ccc2c(c1)C(=O)OC21c2ccc(O)cc2Oc2cc(O)ccc21)C(N)=O, N-terminal stretch of mature Smac (DIABLO); Fluorescent probe of the TR-FRET assay; source: synthetic peptide (synthesized in Scrum, Tokyo))", "note": "[FITC-labeled Smac peptide (FITC-Smac, AVPIAQK(5-FAM)-NH2)]", "values": [
      {"measurement": "binding result", "setting": "[7]", "result": "binds"},
      {"measurement": "binding result", "setting": "[8]", "result": "binds"},
      {"measurement": "binding result", "setting": "[9]", "result": "binds"}
    ]}
  ]
}
